Measured values from patent US10800789B2, “Antiviral compounds” (Gilead Pharmasset LLC, priority 2012, dated 2020).
Read-outs that look alike come from different tables or passages of the source.

Columns and labels:
[1] = test system: NS5A chimeric genotype 1b Con1 replicon with genotype 3a S52 strain NS5A gene; experiment: Replicon assay, genotype 3a NS5A chimera; format: cell-based, HCV; settings: Hepatitis C virus
[2] = test system: stable HCV 2a JFH-1 Rluc replicon cells (L31 present in NS5A); experiment: Renilla luciferase HCV replicon reporter assay, genotype 2a JFH-1; format: cell-based; settings: Hepatitis C virus
Summary of the method: (§1)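 Cells carrying the stable or transiently transfected (Huh-Lunet) dicistronic RLuc replicons received 3-fold serial compound dilutions from 10 mM DMSO stocks. After 72 h, cells were lysed and Renilla luciferase read. DMSO served as the no-inhibition control and ITMN-191 above 100×EC50 as the positive control; EC50 by non-linear regression.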

[3] = test system: NS5A chimeric genotype 2a JFH-1 replicon with genotype 2b MD2b-1 strain NS5A gene (M31 present); experiment: Replicon assay, genotype 2b NS5A chimera; format: cell-based, HCV; settings: Hepatitis C virus
Summary of the method: as §1

[4] = test system: Q30R in genotype 1a NS5A (1a Pi-Rluc replicon, Huh-7-derived cured-51 cells); experiment: Replicon assay against resistance mutant 1a Q30R; format: cell-based, HCV; settings: Hepatitis C virus
Summary of the method: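 Q30R introduced by site-directed mutagenesis into the 1a Pi-RLuc replicon; replicon RNA transiently transfected into cured-51 cells. Cells treated with 3-fold serially diluted compound for 72 h, then lysed and Renilla luciferase measured; EC50 by non-linear regression.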

[5] = IV and PO single dose pharmacokinetic studies in SD rats; format: in vivo, male Sprague-Dawley (SD) rats; settings: Sprague-Dawley, rat, plasma, male SD rats, PO 2 mg/kg vs IV infusion 1 mg/kg, read-out: Rat % F
Method: IV and PO Single Dose Pharmacokinetic Studies in SD Rats:
The pharmacokinetics of selected compounds was characterized in male Sprague-Dawley (SD) rats (250-300g). In this study, two groups of naïve purebred SD rats (N=3 per group, fasted over night) received the selected compound either as an intravenous (IV) infusion (1 mg/kg over 30 minutes) via the jugular vein or by oral gavage (2 mg/kg). The intravenous (IV) dosing vehicle was 5% ethanol, 35% polyethylene glycol 400 (PEG 400) and 60% water pH 2.0. The oral dosing vehicle was 5% ethanol, 55% PEG 400 and 40% citrate buffer pH 2.2.
Serial blood samples (approximately 0.3 mL each) were collected from jugular vein or other suitable vein at specified time points. For the IV infusion group, the blood samples were collected predose and at 0.25, 0.48, 0.58, 0.75, 1.5, 3, 6, 8, 12 and 24 hours after the start of infusion. For the oral group, the blood samples were collected predose and at 0.25, 0.50, 1, 2, 4, 6, 8, 12 and 24 hours after dosing. The blood samples were collected into VacutainerγM tubes containing EDTA-K3 as the anti-coagulant and were centrifuged at approximately 4° C. to obtain plasma. The plasma samples were stored at −20° C. until analysis by LC/MS/MS.
A bioanalytical method utilizing high performance liquid chromatography coupled to tandem mass spectrometry (LC/MS/MS) was developed for analysis of the selected compound in rat plasma. Detection was performed using selected reaction monitoring (SRM); Ions representing the precursor (M+H)^+ species was selected in quadrupole 1 (Q1) and collided with argon gas in the collision cell (Q2) to generate specific product ion, which was subsequently monitored by quadrupole 3 (Q3). Standard curve and quality control samples were prepared in male rat plasma and processed in the same way as the test samples to generate quantitative data.
Pharmacokinetic parameters were generated using non-compartmental pharmacokinetic analysis (Phoenix WinNonlin, version 6.3). Values below the lower limit of quantification (LLOQ) were assigned a value of zero if predose and treated as missing thereafter. Area under the curve (AUC) was calculated using the linear trapezoidal rule. The oral bioavailability (% F) was determined by comparison of the area under the curve (AUC) of the compound and/or a metabolite generated in plasma following oral administration to that generated following intravenous administration.

[6] = test system: stable HCV 1a RLuc replicon cells (dicistronic genotype 1a H77 replicon); experiment: Renilla luciferase HCV replicon reporter assay, genotype 1a; format: cell-based; settings: Hepatitis C virus, 72 h, stable 1a H77 RLuc replicon cells
Summary of the method: as §1

[7] = test system: stable HCV 1b RLuc replicon cells (dicistronic genotype 1b Con1 replicon); experiment: Renilla luciferase HCV replicon reporter assay, genotype 1b; format: cell-based; settings: Hepatitis C virus, 72 h, stable 1b Con1 RLuc replicon cells, 72 hours; read-out: 1b
Summary of the method: as §1

[8] = test system: NS5A chimeric genotype 1b Con1 replicon with genotype 4a ED43 strain NS5A gene; experiment: Replicon assay, genotype 4a NS5A chimera; format: cell-based, HCV; settings: Hepatitis C virus
[9] = test system: NS5A chimeric genotype 2a JFH-1 replicon with genotype 2a J6 strain NS5A gene (M31 present); experiment: Replicon assay, genotype 2a J6 NS5A chimera; format: cell-based, HCV; settings: Hepatitis C virus
Summary of the method: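 EC50 was fitted by non-linear regression to Renilla luciferase signal after 72 h of exposure to 3-fold serially diluted compound (10 mM DMSO stocks). Controls were DMSO (none) and ITMN-191 above 100×EC50 (full). Chimeric 2a replicons were used either stable or transiently transfected into Huh-Lunet cells.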

[10] = read-out: 3a (s) (nM), genotype 3a NS5A chimeric replicon, stable replicon cells (s)
[11] = read-out: 3a (s), (s), activity range
[12] = read-out: 2a JFH (nM), genotype 2a JFH-1 replicon (L31 in NS5A), stable cells
[13] = read-out: 2a JFH, stable 2a JFH-1 Rluc replicon cells, L31 in NS5A, activity range
[14] = 2BS, read-out: 2b (s), stably replicating replicon cells (s), activity range
[15] = read-out: 2b (s) (nM), genotype 2b MD2b-1 NS5A chimeric replicon (M31), stably replicating replicon cells (s)
[16] = read-out: 2b (t) (nM), genotype 2b MD2b-1 NS5A chimeric replicon (M31), transiently transfected (t)
[17] = read-out: 4a (s) (nM), genotype 4a NS5A chimeric replicon, stable replicon cells (s)
[18] = read-out: 4a (s), (s), activity range
[19] = read-out: 2a J6 (s) (nM), genotype 2a J6 NS5A chimeric replicon (M31), stably replicating replicon cells (s)
[20] = read-out: 2a J6 (s), stably replicating replicon cells (s), activity range

CC[C@H]1CC[C@@H](c2ncc(-c3ccc4c(c3)COc3cc5c(ccc6nc([C@@H]7CC[C@H](C)N7C(=O)[C@@H](NC(=O)OC)C7CCOCC7)[nH]c65)cc3-4)[nH]2)N1C(=O)[C@@H](NC(=O)OC)C(C)C [EN, methyl[(1 S)-2-[(2S,5S)-2-(9-{2-[(2S,5S)-5-ethyl-1-{(2S)-2 [(methoxycarbonyl)amino]-3-methylbutanoyl}pyrrolidin-2-yl]-1H-imidazol-5-yl}-1,11 dihydroisochromeno[4′,3′:6,7]naphtho[1,2-d]imidazol-2-yl)-5-methylpyrrolidin-1-yl]-2-oxo-1(tetrahydro-2H-pyran-4-yl)ethyl]carbamate]
EC50 [1, 10]: 0.061 nM | EC50 [1, 11]: < 0.1 nM | EC50 [2, 12]: 0.015 nM | EC50 [2, 13]: < 0.1 nM | EC50 [3, 14]: < 0.1 nM | EC50 [3, 15]: 0.095 nM | EC50 [3, 16]: 0.052 nM | EC50 ([3]; read-out: 2b (t), transiently transfected (t) into Huh-Lunet cells, activity range): < 0.1 nM | EC50 ([4]; read-out: 1a Q30R): < 0.1 nM | EC50 ([4]; read-out: 1a Q30R (nM)): 0.043 nM | bioavailability [5]: 29.9% | EC50 [6]: 0.018 nM | EC50 ([6]; activity range): < 0.1 nM | EC50 [7]: 0.034 nM

COC(=O)N[C@H](C(=O)N1[C@@H](C)CC[C@H]1c1ncc(-c2ccc3c(c2)COc2cc4c(ccc5nc([C@@H]6C[C@H](COC(F)F)CN6C(=O)[C@@H](NC(=O)OC)[C@@H](C)OC)[nH]c54)cc2-3)[nH]1)C(C)C [FO]
EC50 [1, 10]: 0.055 nM | EC50 [1, 11]: < 0.1 nM | EC50 [2, 12]: 0.008 nM | EC50 [2, 13]: < 0.1 nM | EC50 [3, 14]: 0.1 to 0.999 nM | EC50 [3, 15]: 0.164 nM | EC50 ([4]; read-out: 1a Q30R): 0.1 to 0.999 nM | EC50 ([4]; read-out: 1a Q30R (nM)): 0.112 nM | bioavailability [5]: 17.2% | EC50 [6]: 0.01 nM | EC50 ([6]; activity range): < 0.1 nM | EC50 [7]: 0.009 nM | EC50 [8, 17]: 0.007 nM | EC50 [8, 18]: < 0.1 nM

CC[C@H](C)[C@H](NC(=O)OC)C(=O)N1[C@@H](C)CC[C@H]1c1nc2ccc3cc4c(cc3c2[nH]1)OCc1cc(-c2cnc([C@@H]3CC[C@H](C)N3C(=O)[C@@H](NC(=O)OC)C3CCOCC3)[nH]2)ccc1-4 [FQ, Methyl [(1 S)-2-[(2S,5S)-2-(5-{2-[(2S,5S)-1-{(2S,3S)-2-[(methoxycarbonyl)amino]-3-methylpentanoyl}-5-methylpyrrolidin-2-yl]-1,11-dihydroisochromeno[4′,3′:6,7]naphtho[1,2-d]imidazol-9-yl}-1H-imidazol-2-yl)-5-methylpyrrolidin-1-yl]-2-oxo-1-(tetrahydro-2H-pyran-4-yl)ethyl]carbamate]
EC50 [1, 10]: 0.02 nM | EC50 [1, 11]: < 0.1 nM | EC50 [2, 12]: 0.01 nM | EC50 [2, 13]: < 0.1 nM | EC50 [3, 14]: < 0.1 nM | EC50 [3, 15]: 0.066 nM | EC50 ([4]; read-out: 1a Q30R): < 0.1 nM | EC50 ([4]; read-out: 1a Q30R (nM)): 0.097 nM | bioavailability [5]: 17.7% | EC50 [6]: 0.012 nM | EC50 ([6]; activity range): < 0.1 nM | EC50 [7]: 0.019 nM

CC[C@H](C)[C@H](NC(=O)OC)C(=O)N1[C@H](c2ncc(-c3ccc4c(c3)COc3cc5c(ccc6nc([C@@H]7CC[C@H](C)N7C(=O)[C@@H](NC(=O)OC)C7CCOCC7)[nH]c65)cc3-4)[nH]2)C[C@@H]2CCC[C@@H]21 [IL]
EC50 [1, 10]: 0.083 nM | EC50 [1, 11]: < 0.1 nM | EC50 [2, 12]: 0.019 nM | EC50 [2, 13]: < 0.1 nM | EC50 [3, 14]: 0.1 to 0.999 nM | EC50 [3, 15]: 0.143 nM | EC50 [3, 16]: 0.025 nM | EC50 ([4]; read-out: 1a Q30R): < 0.1 nM | bioavailability [5]: 40.9% | EC50 [6]: 0.028 nM | EC50 ([6]; activity range): < 0.1 nM | EC50 [7]: 0.034 nM | EC50 [8, 17]: 0.04 nM | EC50 [8, 18]: < 0.1 nM

COC(=O)N[C@H](C(=O)N1[C@H](c2ncc(-c3ccc4c(c3)COc3cc5c(ccc6nc([C@@H]7C[C@@H]8CCC[C@@H]8N7C(=O)[C@@H](NC(=O)OC)C7CCOCC7)[nH]c65)cc3-4)[nH]2)C[C@@H]2CCC[C@@H]21)C(C)C [IT]
EC50 [9, 19]: 0.007 nM | EC50 [9, 20]: < 0.1 nM | EC50 [1, 10]: 0.032 nM | EC50 [1, 11]: < 0.1 nM | EC50 [2, 12]: 0.017 nM | EC50 [2, 13]: < 0.1 nM | EC50 [3, 14]: < 0.1 nM | EC50 [3, 15]: 0.064 nM | bioavailability [5]: 16.2% | EC50 [6]: 0.012 nM | EC50 ([6]; activity range): < 0.1 nM | EC50 [7]: 0.017 nM | EC50 [8, 17]: 0.004 nM | EC50 [8, 18]: < 0.1 nM

CC[C@H]1CC[C@@H](c2nc3ccc4cc5c(cc4c3[nH]2)OCc2cc(-c3cnc([C@@H]4C[C@@H]6CCC[C@@H]6N4C(=O)[C@@H](NC(=O)OC)C(C)C)[nH]3)ccc2-5)N1C(=O)[C@@H](NC(=O)OC)C1CCOCC1 [IU]
EC50 [9, 19]: 0.028 nM | EC50 [9, 20]: < 0.1 nM | EC50 [1, 10]: 0.098 nM | EC50 [1, 11]: < 0.1 nM | EC50 [2, 12]: 0.02 nM | EC50 [2, 13]: < 0.1 nM | EC50 [3, 14]: 0.1 to 0.999 nM | EC50 [3, 15]: 0.119 nM | bioavailability [5]: 26.5% | EC50 [6]: 0.016 nM | EC50 ([6]; activity range): < 0.1 nM | EC50 [7]: 0.022 nM | EC50 [8, 17]: 0.004 nM | EC50 [8, 18]: < 0.1 nM
